From patent US20180049433A1, “SEMIOCHEMICAL COMPOSITIONS FOR THE PREVENTION OF HEMATOPHAGOUS DIPTERA INSECTS FROM LANDING AND BITING ANIMALS” (INSTITUTE DE RECHERCHE EN SEMIOCHIMIE ET ETHOLOGIE APPLIQUEE, priority 2015, published 2018)
Values joined by “and” are separate entries in the source; they are usually repeats but may differ in a detail not shown here. Identical values can stand only once. Like-named read-outs stand apart in the source and are kept apart here.

Experiments:
[1] = tested on: Culex pipiens quinquefasciatus; assay: Mosquito engorgement test on treated cats, Culex pipiens quinquefasciatus; assay type: in vivo; details: cat
Protocol: Other tests were performed on guinea pigs and cats using combinations of D, which is 3-cyclopentyl propanoic acid, F, which is 3-cyclohexyl propanoic acid, X, which is 3-cyclohexyl 2-methyl propanoic acid and W, which is 3-cyclopentyl 2-methyl propanoic acid.
The same experiment was conducted in the same manner as in Example 4 using guinea pigs, chickens and cats. The mosquitoes used in this experiment were Culex sp, Aedes sp and Anopheles.
The procedure that was followed was that in Example 4, except that cats (Felis domesticus) were tested instead of guinea pigs. The mosquitoes that were used in this experiement were Culex pipiens quinquefasciatus and Aedes aegypti.

[2] = tested on: Culex pipiens quinquefasciatus; assay: Mosquito engorgement test on treated shaved guinea pigs, Culex pipiens quinquefasciatus; assay type: in vivo
Source text: The tests were undertaken using experimental cages, which were composed of a plastic frame having the dimensions 29×29×29 cm. A sleeve of mosquito netting was placed over the cage. The sleeves of the netting were closed with rubber bands thus preventing light from entering the cages.
In each cage the mosquitoes had at their disposition a little water placed in a jar.
The mosquitoes that were used in this experiment were Culex pipiens quinquefasciatus. In each cage 50 female mosquitoes were introduced.
The day before the test 50 […] female mosquitoes were introduced into their experimental cage. The mosquitoes were deprived of a source of sugar at least twelve hours before the test.
The mosquitoes were collected by suction on the walls of the experimental cage with a mouth vacuum that was connected to a suction pump. To avoid errors, the mosquitoes were removed and introduced in lots of five. The sex was determined by observation of their antennas, since the male's antennas are more feathery.
Once the mouth vacuum was empty in the experimental cage the health of the mosquitoes was verified. To be used in the experiment, the mosquitoes had to be able to fly. Before the test the dead mosquitoes or those mosquitoes that could not fly were replaced with healthy ones.
Prior to starting the experiment the mosquitoes were tested to determine if the mosquitoes were ready to bite. This was verified by introducing a hand washed with soap and without any smell in the experimental cage. If more than three mosquitoes posed on the hand voluntarily within a delay of 30 seconds, then it was deemed that the mosquitoes were ready to bite. The hand was withdrawn when the three mosquitoes posed on it or when the 30 second time period was up. This test was repeated every minute for a maximum of 5 minutes, until a positive result was obtained. If no positive result was obtained the experiment was postponed.
A herd of guinea pigs males and females aging from 4 months to 3 years were used in the experiments. The guinea pig was anesthetized by injecting 1 mg/kg (live weight) of Zoletil® 20 in the thigh. A thin layer of Ocryl® gel was placed on the eyes of the guinea pigs.
The abdominal zone of the guinea pigs were carefully shaved from the teats to the base of the thorax. The area that was shaved was 8 cm from the base of the thorax to the teats by 6 cm from left to right of the guinea pig. This was done using a transparent template.
After shaking the sprayer containing the insect bite inhibiting semiochemical, each guinea pig was sprayed 3 times (0.5 ml total) in the center of the shaved region. After the first administration, the product was spread with the little finger, in which the hand is covered by a vinyl glove, towards the teats. After the second administration by spraying the product was spread with the gloved little finger towards the thorax. After the third administration by spraying the product was spread over the entire shaved surface. The product was permitted to dry for a period of five minutes.
At the bottom of the experimental cage a transparent sheet was placed in which a rectangle of 7 cm by 5 cm was cut in the center. Another cover sheet cut with the same dimensions as the transparent sheet was made and the two rectangles were superimposed on one another and stapled together with 8 staples.
The shaved zone of the guinea pig was centered over the rectangular transparent sheet and the guinea pigs were exposed to the mosquitoes for 30 minutes. See, FIGS. 2 and 3.
At the end of 30 minutes, the mosquitoes were recovered by mouth vacuum. They were then enclosed in a plastic bag that contained a paper soaked with ethyl acetate. After 3 minutes the mosquitoes were aligned on a strip of scotch tape that was labeled with the number of the experiment, the date, the name of the guinea pig in the experiment and the treatment that was applied.
Each treatment was tested with a control.

[3] = tested on: insects; details: cited from earlier work
[4] = guinea pig, solution 0.3%, dose 31 μg/cm^2, 30 min exposure
[5] = guinea pig, solution 0.3%, dose 33 μg/cm^2, 30 min exposure
[6] = solution 3.0%, dose 324 μg/cm^2, 30 min exposure
[7] = guinea pig, solution 0.1%, dose not given, 30 min exposure
[8] = guinea pig, solution 3.0%, dose 31 μg/cm^2, 30 min exposure
[9] = guinea pig, dose 31 μg/cm^2 (Table 7)

O=C(O)CCC1CCCC1 [3-CPP, 3-cyclopentyl propionic acid]
% efficacy ([1]; 3.0%, dose 314 μg/cm^2): 100%
Number of bites of the solution used ([1]; 3.0%, dose 314 μg/cm^2): 0%
% efficacy ([1]; dose 32 μg/cm^2): 94% and 100%
% efficacy ([1]; dose 324 μg/cm^2): 100%
% bites tested [2, 4]: 4% and 5% and 1% and 11%
% efficacy [2, 4]: 94% and 85% and 91% and 82%
% bites tested [2, 5]: 0%
% efficacy [2, 5]: 100%
% bites tested [2, 6]: 0%
% efficacy [2, 6]: 100%

O=C(O)CC1CCCCC1 [CHA, cyclohexyl acetic acid]
% bites tested [2, 4]: 8%
% efficacy [2, 4]: 86%

CCN(CC)C(=O)c1cccc(C)c1 [DEET, N,N-diethyl-meta-toluamide]
protection time ([3]; encapsulated DEET): up to 10 hours
protection time ([3]; product containing 4.75% of DEET): one and a half
protection time ([3]; product containing 23.8% of DEET): five

Cc1ncc(C[n+]2csc(CCO)c2C)c(N)n1 [Vit. B1, reference compound]
% bites tested [2, 7]: 93%
% efficacy [2, 7]: 2%

Cc1ncc(CO)c(CO)c1O [Vit. B6, reference compound]
% bites tested [2, 7]: 87%
% efficacy [2, 7]: −19%

CC1=CC[C@@H](C(C)(C)O)CC1 [alpha terpineol, reference compound]
% bites tested [2, 4]: 32%
% efficacy [2, 4]: 48%

CC12CCC(CC1)C(C)(C)O2 [eucalyptol, reference compound]
% bites tested [2, 4]: 43%
% efficacy [2, 4]: −14%

CC(C)=CCC/C(C)=C/CO [geraniol, reference compound]
% bites tested [2, 4]: 25%
% efficacy [2, 4]: 58%
% bites tested [2, 8]: 0%
% efficacy [2, 8]: 100%

C=C(C)[C@H]1CC=C(C)CC1 [limonene, reference compound]
% bites tested [2, 4]: 58%
% efficacy [2, 4]: −19%

CC(CC1CCCCC1)C(=O)O (stereo not shown) [methylated 3-CHP, 3-cyclohexyl 2-methyl propanoic acid]
% efficacy [2, 9]: 67%

CC(CC1CCCC1)C(=O)O (stereo not shown) [methylated 3-CPP, 3-cyclopentyl 2-methyl propanoic acid]
% efficacy [2, 9]: 89%

methylated cyclohexyl acetic acid [methylated CHA]
% efficacy [2, 9]: 77%

pinene [reference compound]
% bites tested [2, 4]: 23%
% efficacy [2, 4]: 30%
